Source: patent US3981868A
Values after ≈ are worked out from the molar mass of the structure shown.

How the values were obtained:
[1] = test system: dl-PGE1-induced contraction of gerbil colon; assay: inhibition of dl-PGE1-induced contraction of gerbil colon; conditions: approximate; for ID50 vs. 20 ng. of PGE1 /ml.: sub-maximal challenge, 20 ng./ml. dl-PGE1, 50% inhibition of maximum response; for ID50 vs. 200 ng. of PGE1 ml.: maximal challenge, 200 ng./ml. dl-PGE1
Procedure: Testing for prostaglandin antagonist action is carried out in the following manner.
Sections of ascending colon, approximately 20 mm. long, from mature male gerbils (Meriones unguiculatus) weighing 70-80 g. were mounted in DeJalon's solution (154 mM NaCl; 5.95 mM NAHCO3 ; 278 mM glucose, 5.64 mM KCl and .27 mM Cacl2 in 20 ml. tissue baths) (L. and K Glass Co., Lynnhurst, N.J.). The medium was continually gassed with a mixture of 95% 02 -5% CO2 and maintained at 37°C. The tissues were suspended via silk suture threads between a glass hook at the base and a model FT .03C force displacement transducer (Grass Instrument, Quincy, Mass.).
After mounting, tissues were allowed to stabilize 15-20 minutes during which time adjustments were made to establish and maintain a 0.5 g. resting tension on the muscle. Thereafter, test cycles of 3-5 minutes were begun and consisted of a 1 minute exposure to the potential antagonist, if called for, followed by a 1 minute exposure to the prostaglandin agonist, a 15-30 sec. washout and a recovery period of 2-2.5 minutes. […] During the washout period, the tissue was rinsed with a measured amount equalling 8 volumes of medium. Muscle relaxation was virtually complete by the end of the washout period.
Following stabilization, muscles were exposed 2 to 3 times to this concentration of dl-PGE1 until a consistent response was recorded. Once maximal responses are established, test cycles with potential antagonists were commenced and were followed alternatively with prostaglandin-only test cycle. […] The contraction of the muscle induced by 200 ng./ml. dl-PGE1 following exposure to a given concentration of the potential antagonist was always compared to the response of the tissue to that level of dl-PGE1 in the immediately preceding cycle. Using a series of potential antagonist concentrations, an approximate ID50 (concentration at which 50% inhibition was observed) was established.

Trichophyton rubrum E 97 = assay: agar-dilution streak-plate antifungal assay (5); type: cell-based; conditions: E97, read-out: Minimal inhibitory conc.
Procedure: (§1) The novel compounds of the present invention are also useful as antimicrobial agents. […] In this assay, the compounds to be tested are made up to contain 2.5 mg. of test compound per milliliter of solution. Observing sterile techniques, two-fold serial dilutions are made of each test solution. One milliliter of each of the original solutions and of each of the serial dilutions is then added to 9 ml. of warm sterile nutrient agar capable of supporting growth of the bacterial test cultures. A second set of agar dilutions is prepared identical to the first except that the nutrient agar is designed to support the growth of the fungal test cultures. […] The test bacteria and yeast-like fungi are prepared for use by growing in broth overnight. The spores of the filamentous fungi are harvested from mature agar slant cultures and are suspended in sterile physiological saline solution. A loopful of each of the resulting live suspensions is then, still employing sterile techniques, streaked upon the surfaces of each of the agar plates and the resulting streaked plates are then incubated. After an appropriate period of time, each of the streaks on each of the plates is inspected visually and the extent, if any, of bacterial or fungal growth is noted. The minimal inhibitory concentration (expressed in micrograms per milliliter) is defined as the concentration of test compound causing complete inhibition of growth of any particular organism. In a representative operation, and merely by way of illustration, the minimal inhibitory concentration of typical compounds of the present invention against a variety of test organisms as determined in the above-described assay are set forth in Tables II and III below: […]

[2] = test system: Streptococcus pyogenes C 203; assay: agar-dilution streak-plate antibacterial assay (8); type: cell-based; conditions: C203, read-out: Minimal inhibitory conc.
Procedure: as §1

diastolic blood pressure = assay: hypotensive activity in anesthetized rats (minimal dose lowering diastolic blood pressure about 10 mm.); type: in vivo, Male Wistar strain rats; conditions: Rattus norvegicus; intravenous; dose producing a decrease of about 10 mm. in diastolic blood pressure
Procedure: This procedure is a modification of the technique described by Pike et al., Prostaglandins, Nobel Symposium 2, Stockholm, June, 1966; p. 165.
Male Wistar strain rats (Royal Hart Farms) averaging approximately 250 grams in weight were fastened to rat boards in a supine position by means of canvas vests and limb ties. The femoral area was infiltrated subcutaneously with lidocaine and the iliac artery and vein were exposed and cannulated. Arterial blood pressure (systolic/diastolic) was recorded using a Statham P23 Db pressure transducer-Offner dynograph system. To obtain a stable blood pressure, the animals were anesthetized before use with pentobarbital, 30 mg./kg. of body weight intravenously, and also were given hexamethonium bitartrate, 2 mg./kg., of body weight intravenously. The test compounds were prepared by ultrasonic dispersion in a saline-Tween 80 vehicle. A constant intravenous dose volume of 0.5 ml. was administered and test doses ranged from 0.1 to 10.0 mg./kg. of body weight. Increasing or decreasing doses were selected depending on the dose response obtained. In Table I below are set forth the minimal doses required to produce a decrease of about 10 mm. in diastolic blood pressure for typical compounds of the present invention.

[3] = test system: Staphylococcus aureus Rose ATCC 14154; assay: agar-dilution streak-plate antibacterial assay (7); type: cell-based; conditions: ATCC14154, read-out: Minimal inhibitory conc.
Procedure: as §1

[4] = test system: Trichophyton tonsurans NIH 662; assay: agar-dilution streak-plate antifungal assay (3); type: cell-based; conditions: NIH662, read-out: Minimal inhibitory conc.
Procedure: as §1

[5] = test system: Microsporum canis ATCC 10214; assay: agar-dilution streak-plate antifungal assay (1); type: cell-based; conditions: ATCC10214, read-out: Minimal inhibitory conc.
Procedure: as §1

gastric acid secretion = assay: inhibition of gastric acid secretion (pylorus-ligated rat, Shay rat); type: in vivo, rats (male, CFE strain); conditions: intraduodenal dose 100 mg./kg. body weight, 3 hours, 20% or more considered active
Procedure: The novel compounds of the present invention are also effective inhibitors of gastric acid secretion and of ulcer development in experimental animals, and thus are potentially valuable as agents for the control of gastric acid secretion and of gastric erosion and as anti-ulcer agents. Gastric acid secretion inhibitory action is usually measured by the "Shay rat" procedure ^(1,2) with some modifications as follows.
The rats (male, CFE strain) were starved for 48 hours (water was given ad libitum) to permit evacuation of stomach contents. On the morning of the experiment, under ether anesthesia, the abdominal region was shaved and a midline incision (1-11/2 inches) was made with a scalpel. With the help of a closed curved hemostat the duodenum was picked up. Upon getting the duodenum into view fingers were used to pull the stomach through the opening, the stomach was then gently manipulated with fingers to rid the stomach of air and residual matter which were pushed through the pylorus. Two 5-inch sutures were drawn under the pyloric-duodenal juncture. A ligature, at the juncture, was formed with one of the threads. The second ligature was also formed by not tightened.
The test compound or the vehicle, usually 1 ml./100 g. body weight, were injected into the duodenum as close as possible to the first ligature. After injection the second ligature was tightened below the injection site to minimize leakage. The stomach was placed back through the opening into the abdominal cavity, the area of incision was washed with saline and the incision was closed with autoclips. (Ocasionally, instead of an intraduodenal injection, animals were dosed by the oral or subcutaneous route. In the latter case, dosing was done thirty to sixty minutes before the operation).
The abdominal cavity was exposed by cutting with scissors and the esophagus close to the stomach was clamped off with a hemostat, the stomach was removed by cutting above the hemostat (the espohagus was cut) and between the two sutures. Extraneous tissue was removed, the stomach washed with saline and blotted on gauze. A slit was carefully made in the stomach which was held over a funnel and the contents were collected in a centrifuge tube. The stomach was further cut along the outside edge and turned inside out. Two ml. of water were used to wash the stomach contents into the respective centrifuge tube. The combined stomach contents and wash were then centrifuged out for 10 minutes in the International Size 2 Centrifuge (setting at 30). The supernatant was collected, volume measured and recorded, 2 drops of phenolphthalein indicator (1% in 95% ethanol) were added and the solution was titrated with 0.02N NaOH (or with 0.04N NaOH when large volumes of stomach contents were encountered) to pH 8.4 (because of usual coloring of the stomach contents, phenolphthalein was only used to permit visual indication that the end point was near) and the amount of acid present was calculated.
Compounds inducing inhibition of gastric acid secretion of 20% or more were considered active. In a representative operation, and merely by way of illustration, the results obtained with this assay with typical compounds of the present invention are given in Table IIIA.

[6] = test system: Mycobacterium smegmatis ATCC 606; assay: agar-dilution streak-plate antibacterial assay (6); type: cell-based; conditions: Mycolicibacterium smegmatis, ATCC606, read-out: Minimal inhibitory conc.
Procedure: as §1

[7] = test system: Trichophyton mentagrophytes E 11?; assay: agar-dilution streak-plate antifungal assay (4); type: cell-based; conditions: read-out: Minimal inhibitory conc.
Procedure: as §1

[8] = test system: Microsporum gypseum ATCC 14683; assay: agar-dilution streak-plate antifungal assay (2); type: cell-based; conditions: Nannizzia gypsea, ATCC14683, read-out: Minimal inhibitory conc.
Procedure: as §1

| Structure (SMILES) | ID50 vs. 20 ng. of PGE1 /ml. [1] | MIC (Trichophyton rubrum E 97) | MIC [2] | minimal effective dose (diastolic blood pressure) | MIC [3] | MIC [4] | MIC [5] | Percent Inhibition of gastric acid secretion (gastric acid secretion) | MIC [6] | MIC [7] | MIC [8] | ID50 vs. 200 ng. of PGE1 ml. [1] |
| --- | --- | --- | --- | --- | --- | --- | --- | --- | --- | --- | --- | --- |
| CCCCCC/C=C/[C@H]1CCC(=O)[C@@H]1CCCCCCC(=O)N1CC2CCC(CC2)C1 (relative stereo) | 4 µg/mL | – | – | – | – | – | – | – | – | – | – | – |
| CCCCCC/C=C/[C@H]1CCC(=O)[C@@H]1CCCCCCC(=O)N1CCN(C)CC1 (relative stereo) [listing 1 of 2 here] | – | 25 µg/mL (≈ 61.8 µM) | 10 µg/mL (≈ 24.7 µM) | 4 mg/kg | 25 µg/mL (≈ 61.8 µM) | 25 µg/mL (≈ 61.8 µM) | 25 µg/mL (≈ 61.8 µM) | 36% | 10 µg/mL (≈ 24.7 µM) | 10 µg/mL (≈ 24.7 µM) | 25 µg/mL (≈ 61.8 µM) | – |
| CCCCCC/C=C/[C@H]1CCC(=O)[C@@H]1CCCCCCC(=O)N1CCN(C)CC1 (relative stereo) [listing 2 of 2 here] | 0.5 µg/mL | – | – | – | – | – | – | – | – | – | – | 3 µg/mL |
| CCCCCC/C=C/[C@H]1CCC(=O)[C@@H]1CCCCCCC(=O)N1CCN(c2ccccc2)CC1 (relative stereo) | – | – | – | 8 mg/kg | – | – | – | – | – | – | – | – |
| CCCCCC/C=C/[C@H]1CCC(=O)[C@@H]1CCCCCCC(=O)NO (relative stereo) | – | 250 µg/mL (≈ 741 µM) | 250 µg/mL (≈ 741 µM) | 2 mg/kg | 250 µg/mL (≈ 741 µM) | 250 µg/mL (≈ 741 µM) | 250 µg/mL (≈ 741 µM) | 38% | 250 µg/mL (≈ 741 µM) | 250 µg/mL (≈ 741 µM) | 250 µg/mL (≈ 741 µM) | 12 µg/mL |
| CCCCCC/C=C/[C@H]1CCC(=O)[C@@H]1CCCCCCC(=O)N1CCOCC1 (relative stereo) | – | – | 25 µg/mL (≈ 63.8 µM) | 1 mg/kg | – | 250 µg/mL (≈ 638 µM) | 250 µg/mL (≈ 638 µM) | – | 25 µg/mL (≈ 63.8 µM) | 250 µg/mL (≈ 638 µM) | – | – |
| CCCCCC/C=C/[C@H]1CCC(=O)[C@@H]1CCCCCCC(=O)N1CCCC1 (relative stereo) | 1 µg/mL | 25 µg/mL (≈ 66.6 µM) | 5 µg/mL (≈ 13.3 µM) | 8 mg/kg | 50 µg/mL (≈ 133 µM) | 50 µg/mL (≈ 133 µM) | 100 µg/mL (≈ 266 µM) | – | 5 µg/mL (≈ 13.3 µM) | 50 µg/mL (≈ 133 µM) | 10 µg/mL (≈ 26.6 µM) | – |
| CCCCCC/C=C/[C@H]1CCC(=O)[C@@H]1CCCCCCC(N)=O (relative stereo) [9-oxo-13-trans-prostenamide] | 5 µg/mL | 50 µg/mL (≈ 156 µM) | 10 µg/mL (≈ 31.1 µM) | 2 mg/kg | 50 µg/mL (≈ 156 µM) | 50 µg/mL (≈ 156 µM) | 50 µg/mL (≈ 156 µM) | – | 25 µg/mL (≈ 77.8 µM) | 25 µg/mL (≈ 77.8 µM) | 50 µg/mL (≈ 156 µM) | – |
| CCCCCC/C=C/[C@H]1CCC(=O)[C@@H]1CCCCCCC(=O)N(C)C (relative stereo) [N,N-dimethyl-9-oxo-13-trans-prostenamide] | 2 µg/mL | 25 µg/mL (≈ 71.5 µM) | 10 µg/mL (≈ 28.6 µM) | 2 mg/kg | 25 µg/mL (≈ 71.5 µM) | 25 µg/mL (≈ 71.5 µM) | 25 µg/mL (≈ 71.5 µM) | – | 10 µg/mL (≈ 28.6 µM) | 25 µg/mL (≈ 71.5 µM) | 25 µg/mL (≈ 71.5 µM) | – |
| CCCCCC/C=C/[C@H]1CCC(=O)[C@@H]1CCCCCCC(=O)NCCO (relative stereo) [N-(2-hydroxyethyl)-9-oxo-13-trans-prostenamide] | 1 µg/mL | 25 µg/mL (≈ 68.4 µM) | 10 µg/mL (≈ 27.4 µM) | 0.4 mg/kg | 25 µg/mL (≈ 68.4 µM) | 25 µg/mL (≈ 68.4 µM) | 25 µg/mL (≈ 68.4 µM) | – | 25 µg/mL (≈ 68.4 µM) | 10 µg/mL (≈ 27.4 µM) | 25 µg/mL (≈ 68.4 µM) | – |
| CCC/C=C/[C@H]1CCC(=O)[C@@H]1CCCCCCC(=O)NCCCN(C)C (relative stereo) [N-(3-dimethylaminopropyl) 9-oxo-18,19,20-trinor-13-trans-prostenamide] | – | – | – | – | – | – | – | 87% | – | – | – | – |
| CCCCCC/C=C/[C@H]1CCC(=O)[C@@H]1CCCCCCC(=O)NC (relative stereo) [N-methyl-9-oxo-13-trans-prostenamide] | – | 100 µg/mL (≈ 298 µM) | – | 4 to 8 mg/kg | 5 µg/mL (≈ 14.9 µM) | 25 µg/mL (≈ 74.5 µM) | 100 µg/mL (≈ 298 µM) | – | – | 25 µg/mL (≈ 74.5 µM) | 50 µg/mL (≈ 149 µM) | – |
| CCCCCC/C=C/[C@H]1CCC(O)[C@@H]1CCCCCCC(=O)NCCCN(C)C (stereo partly drawn) [N-(3-dimethylaminopropyl)-9-(α- and β-)-hydroxy-13-trans-prostenamide] | – | 250 µg/mL (≈ 612 µM) | 6 µg/mL (≈ 14.7 µM) | 0.2 mg/kg | 62 µg/mL (≈ 152 µM) | 125 µg/mL (≈ 306 µM) | 250 µg/mL (≈ 612 µM) | 85% | 6 µg/mL (≈ 14.7 µM) | 125 µg/mL (≈ 306 µM) | 125 µg/mL (≈ 306 µM) | – |
